From patent US20090076015A1, “Tricyclic Spiro Compound Comprising Acyl Group Bound to Nitrogen Atom in the Ring” (priority 2005, published 2009)
pIC50: −log10 of the molar value.

The molecules below were run against T1, human FXa (Homo sapiens, UniProt P00742) (assay: Measurement of the human FXa inhibitory action). Details: human FXa 0.019 U/ml, substrate S-2222 0.4 mM, 37° C., Tris-HCl buffer pH 7.5.
T1 construct: purchased Enzyme Research Laboratories, Inc
T1 sequence (P00742 235-488 limits assumed): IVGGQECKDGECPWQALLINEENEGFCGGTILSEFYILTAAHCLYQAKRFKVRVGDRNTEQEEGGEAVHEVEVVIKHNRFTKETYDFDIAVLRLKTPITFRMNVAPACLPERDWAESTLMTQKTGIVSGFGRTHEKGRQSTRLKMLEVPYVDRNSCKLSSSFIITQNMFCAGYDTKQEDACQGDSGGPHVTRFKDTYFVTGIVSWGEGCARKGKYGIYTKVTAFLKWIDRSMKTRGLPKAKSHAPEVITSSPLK
T1 sequence (P00742 41-179 partner limits assumed): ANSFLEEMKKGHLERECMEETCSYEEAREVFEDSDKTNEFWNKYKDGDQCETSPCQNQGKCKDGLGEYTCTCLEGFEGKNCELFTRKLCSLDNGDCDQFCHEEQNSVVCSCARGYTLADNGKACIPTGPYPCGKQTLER
Assay type: biochemical
Protocol: In vitro FXa inhibitory activity may be measured according to the method of Kettner et al. (Journal of Biological Chemistry, vol. 265, pages 18289 to 18297, 1990). To be more specific, human FXa (product of Enzyme Research Laboratories, Inc., 0.019 U/ml) is mixed with the specimens (of the compound of the present invention) prepared by diluting the compound of the invention with dimethylsulfoxide (DMSO) to different concentrations and synthetic substrate S-2222 (Chromogenix AB, 0.4 mM), and the mixtures are incubated at 37° C. in Tris-hydrochloric acid buffer (pH 7.5). The FXa inhibitory activity of the specimen is calculated by continuously observing the absorbance at 405 nm, and comparing the initial speed with the initial speed in the absence of the specimen.
It should be noted that the FXa inhibitory activity of the specimen is generally indicated as IC50.
Molecule `COCC12CN(S(=O)(=O)c3cc4cc(Cl)ccc4[nH]3)CC(=O)N1CC1(CCN(C(C)=O)CC1)N2C` (single isomer, unassigned; (-)) [Example 1, (−)-1′-acetyl-7-[(5-chloro-1H-indol-2-yl)sulfonyl]tetrahydro-8a-(methoxymethyl)-1-methyl-spiro[imidazo[1,2-a]pyrazine-2(3H),4′-piperidin]-5(1H)-one] has a pIC50 of 8.24.
With `C#CC(=O)N1CCC2(CC1)CN1C(=O)CN(S(=O)(=O)c3cc4ccc(Cl)cc4s3)CC1(COC)N2C` (single isomer, unassigned; (-)) [Example 17, (−)-7-[(6-chloro-benzo[b]thiophen-2-yl)sulfonyl]tetrahydro-8a-(methoxymethyl)-1-methyl-1′-propinoyl-spiro[imidazo[1,2-a]pyrazine-2(3H),4′-piperidin]-5(1H)-one] the pIC50 was 8.19.
Work on `COCC12CN(S(=O)(=O)c3cc4cc(Cl)ccc4[nH]3)CC(=O)N1CC1(CCN(C(C)=O)CC1)O2` (single isomer, unassigned; (-)) [Example 34, (−)-1′-acetyl-7-[(5-chloro-1H-indol-2-yl)sulfonyl]tetrahydro-8a-(methoxymethyl)-spiro[5H-oxazolo[3,2-a]pyrazine-2(3H),4′-piperidin]-5-one] yielded a pIC50 of 8.09.
For `COCC12CN(S(=O)(=O)c3cc4cc(Cl)ccc4[nH]3)CC(=O)N1CC1(CCN(C(=O)C3CCC3)CC1)N2C` (single isomer, unassigned; (-)) [Example 3, (−)-7-[(5-chloro-1H-indol-2-yl)sulfonyl]-1′-cyclobutanecarbonyl-tetrahydro-8a-(methoxymethyl)-1-methyl-spiro[imidazo[1,2-a]pyrazine-2(3H),4′-piperidin]-5(1H)-one], the pIC50 was 8.89.
For `CC(=O)N1CCC2(CC1)CN1C(=O)CN(S(=O)(=O)c3cc4cc(Cl)ccc4[nH]3)CC1(CN(C)C)O2` (single isomer, unassigned) [Example 60, optically active 1′-acetyl-7-[(5-chloro-1H-indol-2-yl)sulfonyl]tetrahydro-8a-(N,N-dimethylaminomethyl)-spiro[5H-oxazolo[3,2-a]pyrazine-2(3H),4′-piperidin]-5-one], the pIC50 was 8.35.
In the case of `CCC(=O)N1CCC2(CC1)CN1C(=O)CN(S(=O)(=O)c3cc4cc(Cl)ccc4[nH]3)CC1(COC)N2` (single isomer, unassigned; (-)) [Example 26, (−)-7-[(5-chloro-1H-indol-2-yl)sulfonyl]tetrahydro-8a-(methoxymethyl)-1′-propanoyl-spiro[imidazo[1,2-a]pyrazine-2(3H),4′-piperidin]-5(1H)-one], the pIC50 was 8.24.
For `C#CC(=O)N1CCC2(CC1)CN1C(=O)CN(S(=O)(=O)c3cc4cc(Cl)ccc4[nH]3)CC1(COC)N2C` (single isomer, unassigned; (-)) [Example 13, (−)-7-[(5-chloro-1H-indol-2-yl)sulfonyl]tetrahydro-8a-(methoxymethyl)-1-methyl-1′-propinoyl-spiro[imidazo[1,2-a]pyrazine-2(3H),4′-piperidin]-5(1H)-one], the pIC50 was 8.59.
For `CCC(=O)N1CCC2(CC1)CN1C(=O)CN(S(=O)(=O)c3cc4cc(Cl)ccc4[nH]3)CC1(COC)N2C` (single isomer, unassigned; (-)) [Example 2, (−)-7-[(5-chloro-1H-indol-2-yl)sulfonyl]tetrahydro-8a-(methoxymethyl)-1-methyl-1′-propanoyl-spiro[imidazo[1,2-a]pyrazine-2(3H),4′-piperidin]-5(1H)-one], the pIC50 was 8.74.
`CC(=O)NCC12CN(S(=O)(=O)c3cc4cc(Cl)ccc4[nH]3)CC(=O)N1CC1(CCN(C(C)=O)CC1)N2C` (single isomer, unassigned) [Example 21, optically active 1′-acetyl-8a-(acetylaminomethyl)-7-[(5-chloro-1H-indol-2-yl)sulfonyl]tetrahydro-1-methyl-spiro[imidazo[1,2-a]pyrazine-2(3H),4′-piperidin]-5(1H)-one] gave a pIC50 of 8.25.
Molecule `CCC(=O)N1CCC2(CC1)CN1C(=O)CN(S(=O)(=O)c3cc4cc(Cl)ccc4[nH]3)CC1(CN(C)CC(=O)O)O2` (single isomer, unassigned) [Example 66, optically active N-[[7-[(5-chloro-1H-indol-2-yl)sulfonyl]tetrahydro-5-oxo-1′-propanoyl-spiro[5H-oxazolo[3,2-a]pyrazine-2(3H),4′-piperidin]-8a-yl]methyl]-N-methylglycine] has a pIC50 of 8.80.

These molecules were tested on human plasma (assay: Measurement of intrinsic coagulation time (APTT) in vitro). Details: APTT reagent, 37° C., calcium chloride 25 mM.
Assay type: biochemical
Protocol: Activated partial thromboplastin time (APTT) is measured in the presence of the test compounds of the present invention diluted at various concentrations. To be more specific, each of the test compounds diluted with DMSO at various concentrations is mixed with human plasma and APTT reagent. The mixture is incubated at 37° C. for 2 minutes; calcium chloride (25 mM) is added to the mixture; and the coagulation time is thereafter measured. It should be noted that the anticoagulant activity of the test compound is described in terms of the concentration required to double the coagulation time for the case where no test compound is added.
For `C#CC(=O)N1CCC2(CC1)CN1C(=O)CN(S(=O)(=O)c3cc4ccc(Cl)cc4s3)CC1(COC)N2C` (single isomer, unassigned; (-)) [Example 17, (−)-7-[(6-chloro-benzo[b]thiophen-2-yl)sulfonyl]tetrahydro-8a-(methoxymethyl)-1-methyl-1′-propinoyl-spiro[imidazo[1,2-a]pyrazine-2(3H),4′-piperidin]-5(1H)-one], the “Concentration when APTT was doubled” value was 0.87 µM.
`C=CC(=O)N1CCC2(CC1)CN1C(=O)CN(S(=O)(=O)c3cc4cc(Cl)ccc4[nH]3)CC1(COC)N2C` (single isomer, unassigned; (-)) [Example 4, (−)-7-[(5-chloro-1H-indol-2-yl)sulfonyl]tetrahydro-8a-(methoxymethyl)-1-methyl-1′-propenoyl-spiro[imidazo[1,2-a]pyrazine-2(3H),4′-piperidin]-5(1H)-one] was tested, and the “Concentration when APTT was doubled” value was 0.5 µM.
In the case of `CC(=O)N1CCC2(CC1)CN1C(=O)CN(S(=O)(=O)c3cc4cc(Cl)ccc4[nH]3)CC1(COc1ncccn1)O2` (single isomer, unassigned; (-)) [Example 56, (−)-1′-acetyl-7-[(5-chloro-1H-indol-2-yl)sulfonyl]tetrahydro-8a-(2-pyrimidyloxymethyl)-spiro[5H-oxazolo[3,2-a]pyrazine-2(3H),4′-piperidin]-5-one], the “Concentration when APTT was doubled” value was 0.5 µM.
`CCC(=O)N1CCC2(CC1)CN1C(=O)CN(S(=O)(=O)c3cc4cc(Cl)ccc4[nH]3)CC1(COC)N2` (single isomer, unassigned; (-)) [Example 26, (−)-7-[(5-chloro-1H-indol-2-yl)sulfonyl]tetrahydro-8a-(methoxymethyl)-1′-propanoyl-spiro[imidazo[1,2-a]pyrazine-2(3H),4′-piperidin]-5(1H)-one] was tested, and the “Concentration when APTT was doubled” value was 0.44 µM.
`CC(=O)NCC12CN(S(=O)(=O)c3cc4cc(Cl)ccc4[nH]3)CC(=O)N1CC1(CCN(C(C)=O)CC1)N2C` (single isomer, unassigned) [Example 21, optically active 1′-acetyl-8a-(acetylaminomethyl)-7-[(5-chloro-1H-indol-2-yl)sulfonyl]tetrahydro-1-methyl-spiro[imidazo[1,2-a]pyrazine-2(3H),4′-piperidin]-5(1H)-one] was tested, and the “Concentration when APTT was doubled” value was 0.36 µM.
`CCOC(=O)CN(C)CC12CN(S(=O)(=O)c3cc4cc(Cl)ccc4[nH]3)C[C@@H](O)N1CC1(CCN(C(=O)CC)CC1)O2` (single isomer, unassigned) [Example 64, optically active 7-[(5-chloro-1H-indol-2-yl)sulfonyl]tetrahydro-8a-[(N-ethoxycarboxymethyl)-N-methylaminomethyl]-1′-propanoyl-spiro[5H-oxazolo[3,2-a]pyrazine-2(3H),4′-piperidin]-5-one] was tested, and the “Concentration when APTT was doubled” value was 0.89 µM.
`COC(=O)COCC12CN(S(=O)(=O)c3cc4cc(Cl)ccc4[nH]3)CC(=O)N1CC1(CCN(C(C)=O)CC1)O2` (single isomer, unassigned; (-)) [Example 54, (−)-1′-acetyl-7-[(5-chloro-1H-indol-2-yl)sulfonyl]tetrahydro-8a-(methoxycarbonylmethoxymethyl)-spiro[5H-oxazolo[3,2-a]pyrazine-2(3H),4′-piperidin]-5-one] was tested, and the “Concentration when APTT was doubled” value was 0.4 µM.
For `CCN1C2(CCN(C(C)=O)CC2)CN2C(=O)CN(S(=O)(=O)c3cc4cc(Cl)ccc4[nH]3)CC21COC` (single isomer, unassigned; (-)) [Example 23, (−)-1′-acetyl-7-[(5-chloro-1H-indol-2-yl)sulfonyl]tetrahydro-1-ethyl-8a-(methoxymethyl)-spiro[imidazo[1,2-a]pyrazine-2(3H),4′-piperidin]-5(1H)-one], the “Concentration when APTT was doubled” value was 0.19 µM.
`COCC12CN(S(=O)(=O)/C=C/c3ccc(Cl)s3)CC(=O)N1CC1(CCN(C(C)=O)CC1)N2C` (single isomer, unassigned; (-)) [Example 14, (−)-1′-acetyl-7-[[(1E)-2-(5-chloro-2-thienyl)ethenyl]sulfonyl]tetrahydro-8a-(methoxymethyl)-1-methyl-spiro[imidazo[1,2-a]pyrazine-2(3H),4′-piperidin]-5(1H)-one] was tested, and the “Concentration when APTT was doubled” value was 0.64 µM.
In the case of `COCC12CN(S(=O)(=O)/C=C/c3ccc(Cl)s3)CC(=O)N1CC1(CCN(C(C)=O)CC1)O2` (single isomer, unassigned; (-)) [Example 36, (−)-1′-acetyl-7-[[(1E)-2-(5-chloro-2-thienyl)ethenyl]sulfonyl]tetrahydro-8a-(methoxymethyl)-spiro[5H-oxazolo[3,2-a]pyrazine-2(3H),4′-piperidin]-5-one], the “Concentration when APTT was doubled” value was 0.83 µM.
In the case of `O=C(C1CC1)N1CCC2(CC1)CN1C(=O)CN(S(=O)(=O)c3cc4cc(Cl)ccc4[nH]3)CC1(CO)O2` (single isomer, unassigned; (-)) [Example 52, (−)-7-[(5-chloro-1H-indol-2-yl)sulfonyl]tetrahydro-1′-cyclopropanoyl-8a-(hydroxymethyl)-spiro[5H-oxazolo[3,2-a]pyrazine-2(3H),4′-piperidin]-5-one], the “Concentration when APTT was doubled” value was 0.57 µM.
